What all share (format): in vivo
The test system of assay [1] is Waterhemp having a Gly210 deletion mutation in PPO2. Description: Herbicidal effect, soil spray the day after seeding, pot test (Example 1155). To be noted: 10 g per 10000 m^2; 100 L per 10000 m^2; 30 PSI; 10 days in greenhouse; scale of 0 to 100. How it is done:
(§1) Waterhemp having a Gly210 deletion mutation in PPO2, was seeded on a plastic pot filled with a soil. On the next day, an aqueous diluted liquid of trifludimoxazin (prepared by diluting an emuslfiable concentrate of trifludimoxazin with water) was uniformly sprayed onto the pot through the nozzles given in Table 3 at the amount of the aqueous diluted liquid of 100 L per 10000 m^2 so that the application rate of trifludimoxazin might be 10 g per 10000 m^2. The spray pressure was 30 PSI and the spray height (distance between the nozzle outlet and the soil surface of the pot) was 60 cm. The air temperature was 17 degrees Celsius, the wind speed was 2.5 m/s, and the relative humidity was 65% at the timing of application. The sprayed pots were placed in a greenhouse for 10 days to grow waterhemp and then herbicidal effects were evaluated on a scale of 0 to 100.

For assay [2] the test system is unchanged. As to the kind of experiment: Herbicidal effect, soil spray the day after seeding, pot test (Example 1156). Conditions: 15 g per 10000 m^2; 150 L per 10000 m^2; 30 PSI; 10 days in greenhouse; scale of 0 to 100. How it is done:
as §1, with “in PPO2” for “in PPO2,”, “Table 4” for “Table 3”, “of 150” for “of 100”, “be 15” for “be 10”

In assay [3] the test system is Echinochloa crus-galli. As to the kind of experiment: Herbicidal effect, soil spray the day after seeding, pot test (Example 1153). To be noted: 100 L per 10000 m^2, 30 PSI, 10 days in greenhouse, scale of 0 to 100. Here is the method:
as §1, with “Echinochloa crus-galli was seeded” for “Waterhemp having a Gly210 deletion mutation in PPO2, was seeded”, “in Table 1 at the” for “in Table 3 at the”, “might be 20 or 10 g” for “might be 10 g”, “to grow Echinochloa crus-galli and then” for “to grow waterhemp and then”, “evaluated on scale of” for “evaluated on a scale of”

For assay [4], the system named is Echinochloa crus-galli. As to the kind of experiment: Herbicidal effect, soil spray the day after seeding, pot test (Example 1154). To be noted: 150 L per 10000 m^2, 30 PSI, 10 days in greenhouse, scale of 0 to 100. Here is the method: as §1, with “Echinochloa crus-galli was” for “Waterhemp having a Gly210 deletion mutation in PPO2, was”, “Table 2” for “Table 3”, “of 150” for “of 100”, “be 30 or 15” for “be 10”, “grow Echinochloa crus-galli” for “grow waterhemp”

For assay [5], the system named is Amaranthus palmeri, waterhemp and ragweeds having mutations in PPO2. Description: Effect on weeds, foliar treatment 21 days after sowing (Example 3). Conditions: 10, 20, 40, 80, or 160 g/ha, 200 L/ha, drift-reducing nozzle TTI11004, examined 14 days after treatment. From the text: Amaranthus palmeri having an Arg128Gly mutation in PPO2, Amaranthus palmeri having an Arg128Met mutation in PPO2, Amaranthus palmeri having a Gly210 deletion mutation in PPO2, Amaranthus palmeri having a Gly399A1a mutation in PPO2, waterhemp having a Gly210 deletion mutation in PP02, ragweeds having Arg128Leu in PP02, and a Roundup Ready 2 Xtend soybean are sown in a plastic pot. Then, the weeds and soybean are cultivated in a greenhouse and a compound X is applied to perform foliar treatment by using a drift-reducing nozzle (TTI11004 manufactured by Teejet Company) 21 days after sowing. The amount of the compound X to be applied is 10, 20, 40, 80, or 160 g/ha and the amount of spray dilution is 200 L/ha. Then, the weeds and soybean are further cultivated in a greenhouse to examine the effects on the weeds and phytotoxic effects on the soybean 14 days after treatment.

For assay [6] the test system is unchanged. As to the kind of experiment: Effect on weeds, soil surface application on day of weed sowing, soybean sown after 7 days (Example 1). Conditions: 10, 20, 40, 80, or 160 g/ha, 200 L/ha, drift-reducing nozzle TTI11004, examined after 14 days. From the text: Amaranthus palmeri having an Arg128Gly mutation in PPO2, Amaranthus palmeri having an Arg128Met mutation in PPO2, Amaranthus palmeri having a Gly210 deletion mutation in PPO2, Amaranthus palmeri having a Gly399Ala mutation in PPO2, waterhemp having a Gly210 deletion mutation in PPO2, and ragweeds having Arg128Leu in PPO2 are sown in a plastic pot. On the same day, a compound X is applied to the surface of soil by using a drift-reducing nozzle (TTI11004 manufactured by Teejet Company). The amount of the compound X to be applied is 10, 20, 40, 80, or 160 g/ha and the amount of spray dilution is 200 L/ha. Then, these weeds are cultivated in a greenhouse and Roundup Ready 2 Xtend soybean seeds are sown after 7 days, to examine the effects on the weeds and phytotoxic effects on the soybean after 14 days.

For assay [7] the test system is unchanged. Description: Effect on weeds, soil surface application on day of sowing weeds and soybean (Example 2). Conditions: 10, 20, 40, 80, or 160 g/ha, 200 L/ha, drift-reducing nozzle TTI11004, examined after 21 days. From the text:
Amaranthus palmeri having an Arg128Gly mutation in PPO2, Amaranthus palmeri having an Arg128Met mutation in PPO2, Amaranthus palmeri having a Gly210 deletion mutation in PPO2, Amaranthus palmeri having a Gly399Ala mutation in PPO2, waterhemp having a Gly210 deletion mutation in PP02, ragweeds having Arg128Leu in PP02, and a Roundup Ready 2 Xtend soybean are sown in a plastic pot. On the same day, a compound X is applied to the surface of soil by using a drift-reducing nozzle (TTI11004 manufactured by Teejet Company). The amount of the compound X to be applied is 10, 20, 40, 80, or 160 g/ha and the amount of spray dilution is 200 L/ha. Then, the weeds and soybean are cultivated in a greenhouse to examine the effects on the weeds and phytotoxic effects on the soybean after 21 days.

SMILES strings stand for the structures.

Regarding `C#CCN1C(=O)C(F)(F)Oc2cc(F)c(-n3c(=O)n(C)c(=S)n(C)c3=O)cc21` [Trifludimoxazin, trifludimoxazin], in assay [1], the “Herbicidal effect on Waterhemp having a Gly210 deletion mutation in PPO2, Air induction nozzle (TTI11002)” value is 90; the “Herbicidal effect on Waterhemp having a Gly210 deletion mutation in PPO2, Pre-orifice nozzle (DG11002)” value turned out to be 90; the “Herbicidal effect on Waterhemp having a Gly210 deletion mutation in PPO2, Standard nozzle (Teejet11002)” value is 50. In assay [2], the “Herbicidal effect on Waterhemp having a Gly210 deletion mutation in PPO2, Air induction nozzle (TTI11004)” value turned out to be 95 and the “Herbicidal effect on Waterhemp having a Gly210 deletion mutation in PPO2, Standard nozzle (Teejet11004)” value was 60. Further, in the assay on Echinochloa crus-galli [3] (10 g per 10000 m^2), the “Herbicidal effect on Echinochloa crus-galli, Air induction nozzle (TTI11002)” value is 60 and the “Herbicidal effect on Echinochloa crus-galli, Standard nozzle (Teejet11002)” value turned out to be 20. For the same compound, in the assay with Echinochloa crus-galli [3] (20 g per 10000 m^2), the “Herbicidal effect on Echinochloa crus-galli, Air induction nozzle (TTI11002)” value was determined as 80 and the “Herbicidal effect on Echinochloa crus-galli, Standard nozzle (Teejet11002)” value is listed as 30. In addition, in the assay on Echinochloa crus-galli [4] (15 g per 10000 m^2), the “Herbicidal effect on Echinochloa crus-galli, Air induction nozzle (TTI11004)” value came to 70 and the “Herbicidal effect on Echinochloa crus-galli, Standard nozzle (Teejet11004)” value turned out to be 30. In the assay on Echinochloa crus-galli [4] (30 g per 10000 m^2), the “Herbicidal effect on Echinochloa crus-galli, Air induction nozzle (TTI11004)” value was determined as 90 and the “Herbicidal effect on Echinochloa crus-galli, Standard nozzle (Teejet11004)” value came out at 40.
Take `CCOC(=O)COc1ncccc1Oc1cc(-n2c(=O)cc(C(F)(F)F)n(C)c2=O)c(F)cc1Cl` [compound X, Ethyl [3-[2-chloro-4-fluoro-5-(1-methyl-6-trifluoromethyl-2,4-dioxo-1,2,3,4-tetrahydropyrimidine-3-yl)phenoxy]-2-pyridyloxy]acetate]: the “effects on the weeds” value in assay [5], in assay [6] and in assay [7] was “valuable effect” in each case.

The values are drawn from patent US20210267205A1, “METHOD OF CONTROLLING WEEDS” (SUMITOMO CHEMICAL COMPANY, LIMITED, priority 2018, published 2021).
